Where “and” joins values, the source holds several entries; their conditions need not be identical. Equal entries are not always repeated. *1 amine or outer side, *2 acyl side, *3 side chain or, on linkers, in order; H or OH if unused. Where a SMILES comes first, the peptide text is derived from it. Bridges are numbered along the chain shown (N, C = ends). [ ]: non-standard residue; d: D form. Ethylenediamine = C(CN[*:2])N[*:1]; Pen = CC(C)(S)[C@H](N)C(=O)O
Experiments:
[1] = molecular target: T1, Vitronectin Receptor (αvβ3) (Homo sapiens, UniProt P05106+P06756); assay: Human Vitronectin-Vitronectin Receptor (αvβ3) ELISA Assay; assay type: binding; conditions: purified human αvβ3, vitronectin-coated plates; read-out: ELISA IC50 Vitronectin VnR
T1 construct: Human vitronection receptor (VnR) is purified from human placenta; from tissue; host or cells: human placenta
T1 sequence (P06756 31-889 limits assumed): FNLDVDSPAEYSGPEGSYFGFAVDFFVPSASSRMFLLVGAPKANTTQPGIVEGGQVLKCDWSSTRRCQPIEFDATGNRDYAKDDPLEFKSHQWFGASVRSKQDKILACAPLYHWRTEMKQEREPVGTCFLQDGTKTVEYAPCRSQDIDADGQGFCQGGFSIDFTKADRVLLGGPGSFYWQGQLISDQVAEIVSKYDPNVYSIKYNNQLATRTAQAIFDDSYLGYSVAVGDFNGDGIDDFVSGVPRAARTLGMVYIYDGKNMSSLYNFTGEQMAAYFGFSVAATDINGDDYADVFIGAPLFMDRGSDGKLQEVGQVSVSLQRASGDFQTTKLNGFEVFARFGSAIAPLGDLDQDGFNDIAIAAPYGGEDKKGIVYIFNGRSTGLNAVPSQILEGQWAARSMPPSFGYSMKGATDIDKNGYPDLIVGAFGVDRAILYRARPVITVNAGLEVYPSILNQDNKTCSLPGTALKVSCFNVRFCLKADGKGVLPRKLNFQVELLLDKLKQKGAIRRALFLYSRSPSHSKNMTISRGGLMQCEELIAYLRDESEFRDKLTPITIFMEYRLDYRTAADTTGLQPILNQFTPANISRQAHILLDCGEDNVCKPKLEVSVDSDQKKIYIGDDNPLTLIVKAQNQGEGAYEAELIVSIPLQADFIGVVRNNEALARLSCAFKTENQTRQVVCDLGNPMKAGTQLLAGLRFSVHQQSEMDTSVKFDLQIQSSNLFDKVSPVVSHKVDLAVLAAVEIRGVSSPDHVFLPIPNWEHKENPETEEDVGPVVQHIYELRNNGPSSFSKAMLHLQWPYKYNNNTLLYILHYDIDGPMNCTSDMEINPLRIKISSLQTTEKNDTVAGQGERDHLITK
T1 sequence (P06756 891-1048 partner limits assumed): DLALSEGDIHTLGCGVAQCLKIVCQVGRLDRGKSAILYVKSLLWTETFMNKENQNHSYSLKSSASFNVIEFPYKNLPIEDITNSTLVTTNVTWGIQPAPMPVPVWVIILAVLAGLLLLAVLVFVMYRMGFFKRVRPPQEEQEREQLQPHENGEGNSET
T1 sequence (P05106 27-788): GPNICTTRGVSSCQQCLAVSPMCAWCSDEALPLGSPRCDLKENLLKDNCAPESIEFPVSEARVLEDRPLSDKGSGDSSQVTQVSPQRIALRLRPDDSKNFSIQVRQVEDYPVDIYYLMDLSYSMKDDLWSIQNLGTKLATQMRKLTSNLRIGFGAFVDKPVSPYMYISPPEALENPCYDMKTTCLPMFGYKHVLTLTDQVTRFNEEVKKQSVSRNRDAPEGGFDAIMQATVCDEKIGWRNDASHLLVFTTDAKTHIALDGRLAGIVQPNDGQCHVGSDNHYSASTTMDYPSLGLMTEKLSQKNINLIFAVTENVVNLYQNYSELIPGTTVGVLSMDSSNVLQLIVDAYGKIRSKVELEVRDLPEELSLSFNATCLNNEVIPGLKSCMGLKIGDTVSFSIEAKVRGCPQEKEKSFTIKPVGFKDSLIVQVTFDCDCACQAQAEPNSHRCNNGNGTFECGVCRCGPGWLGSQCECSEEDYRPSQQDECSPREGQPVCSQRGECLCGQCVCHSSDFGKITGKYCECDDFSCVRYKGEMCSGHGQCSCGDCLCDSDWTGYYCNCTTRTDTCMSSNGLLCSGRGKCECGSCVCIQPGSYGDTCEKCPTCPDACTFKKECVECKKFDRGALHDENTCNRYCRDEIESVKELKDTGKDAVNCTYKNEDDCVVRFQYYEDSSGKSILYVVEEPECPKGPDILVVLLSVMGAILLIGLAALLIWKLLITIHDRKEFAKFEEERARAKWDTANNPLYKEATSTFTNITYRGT
Source text: Human vitronectin (Vn) is isolated from human plasma and purified by affinity chromatography by the method of Yatohgo et. al., (Cell Structure and Function 13:281-292 [1988]).
Human vitronection receptor (VnR) is purified from human placenta by the method of Pytela et al., (Methods Enzymol., 144:475 [1987]). Alternatively the αvβ3 receptor can be purified from some cell lines (e.g., human embryonic kidney 293 cells) transfected with DNA sequences for both the αv and β3 subunits. The subunits are purified by employing octylglucoside extraction followed by Con-A, Heparin-Sepharose, and S-300 Chromatography.
Anti-GP IIb IIIa monoclonal antibodies specific for human GP IIIa are prepared by the method of Newman et al. (Blood, 65:227-232 [1985]), or a similar procedure. This mouse Mab is specific for the β3 subunit of the vitronectin receptor.
Rabbit Fab 2 anti-mouse Fc fragment horse radish peroxidase conjugate (anti-MuFc HRP) is obtained from PelFreeze (cat. no. 715305-1).
Maxisorp microtiter plates are coated with 2 μg/ml human vitronectin dissolved in PBS ([…]) and stored overnight at 4° C. The plates are washed two times with PBS-0.05% Tween-20 (wash buffer) and blocked by incubating with about 150 μl/well of assay buffer (1%, BSA [RIA grade or better] in 50 mM Tris-HCl, 100 mM NaCl, 1 mM MgCl2, CaCl2, MnCl2 pH 7.4) for 60 minutes. Dilutions of standards are prepared and putative inhibitors (Table 3) are dissolved in assay buffer. The blocked plates are emptied and 25 μl/well of inhibitor or standard solution is added to each well. Twenty-five μl of a 30 μg/ml solution of purified αvβ3 in assay buffer is pipetted into the coated plate. The final concentration of receptor in the assay well is about 15 μg/ml. The plate is incubated on a shaker for 60 minutes. Meanwhile, for each microtite plate, 6 ml buffer solution containing 1.5 μg/ml of mouse monoclonal antibody specific for β3 is prepared. To this solution is added μl of the secondary antibody, which is anti-mouse-Fc-HRP antibody conjugate. For example, for one plate, prepare 6 ml of a 1.5 μg/ml mouse Mab solution to which is added 1 μl of anti-mouse-Fc-HRP antibody stock, (this represents a 1:6000 dilution of the antibody - HRP conjugate). This mixture is allowed to incubate during the receptor-inhibitor incubation. The assay plates are washed 4 times with PBS-Tween and 50 μl/well of the antibody mixture is then pipetted into the plate for a 60 minute incubation. The plate is washed 4 times and the color reaction is developed with 50 μl/well of 0.67 mg/ml o-phenyldiamine in PBS containing 0.012% H2 O2. Alternatively, 16 mM citric acid, 50 mM Na2 PO4 at pH 5.0 can be used as a substrate buffer. The reaction is stopped with 50 μl/well 1M H2 SO4. The plates are read at 492-405 nm and the data analyzed by four-parameter fit.

[2] = test system: New Zealand White rabbits; assay: Rabbit cutaneous bleeding time (CBT); conditions: for Rabbit BT Ratio: Example 1, at the % P.A. inhibition given
Experimental: Unanesthetized male New Zealand White rabbits (2.5-3.5 kg) are placed in a standard rabbit restrainer. Ears are shaved and a 20 G Teflon catheter with flowswitch (Viggo) is placed in the medial artery, flushed with saline and locked with 1 ml of heparinized saline (10 m/ml). A 22 G catheter (Abbott) fitted with an injection cap (Medex) is placed in the marginal vein of the same ear. Saline or a GP IIb IIIa receptor antagonist, at a concentration of 1 to 3 mg/ml, is infused via the venous catheter. At time 0, 41% of the dose is given as a bolus over 2 minutes. The remainder is continuously infused over the following 60 minutes. Blood samples (3.2 ml) are collected into syringes without needles via the arterial catheter at -10, -5, 10, 45, and 60 minutes. The first 0.5 ml is discarded and the following 2.7 ml is collected directly into a syringe containing 0.3 ml of 3.8% sodium citrate. The sample is divided into 1.5 ml aliquots and centrifuged at room temperature for 5 seconds at 12,000 G. The resulting platelet rich plasma (PRP) is used to measure ex-vivo platelet aggregation (XPA). At -10 and 60 minutes an additional 1 cml sample is drawn for an automated blood count (Baker instruments). Catheters are flushed and locked after every sample.
CBT is measured at -10, -5, 10, and 45 minutes on the opposite ear, using an automated incision-making instrument (Surgicutt®, ITD). An incision (5mm×1 mm deep) is made on the dorsal surface of the ear at sites not supplied by major blood vessels. Blood is blotted away with absorbent paper placed near the incision site, every 2 to 15 seconds, to a maximum of 15 minutes. Cessation of bleeding is defined as no blood forming at the incision site for 15 seconds. The range of duplicate CBT in 40 normal rabbits was 0.88 to 3.38 minutes.

Fibronectin Receptor = Fibronectin Receptor (Homo sapiens, UniProt P05556+P08648); assay: Human Fibronectin-Fibronectin Receptor ELISA Assay; assay type: binding; set-up: octylglucoside (OG) extracted human placenta; from tissue; host or cells: human placenta; conditions: human placenta fibronectin receptor, fibronectin-coated plates; read-out: ELISA IC50 Fibronectin FnR
Fibronectin Receptor, sequence (P08648 42-894 limits assumed): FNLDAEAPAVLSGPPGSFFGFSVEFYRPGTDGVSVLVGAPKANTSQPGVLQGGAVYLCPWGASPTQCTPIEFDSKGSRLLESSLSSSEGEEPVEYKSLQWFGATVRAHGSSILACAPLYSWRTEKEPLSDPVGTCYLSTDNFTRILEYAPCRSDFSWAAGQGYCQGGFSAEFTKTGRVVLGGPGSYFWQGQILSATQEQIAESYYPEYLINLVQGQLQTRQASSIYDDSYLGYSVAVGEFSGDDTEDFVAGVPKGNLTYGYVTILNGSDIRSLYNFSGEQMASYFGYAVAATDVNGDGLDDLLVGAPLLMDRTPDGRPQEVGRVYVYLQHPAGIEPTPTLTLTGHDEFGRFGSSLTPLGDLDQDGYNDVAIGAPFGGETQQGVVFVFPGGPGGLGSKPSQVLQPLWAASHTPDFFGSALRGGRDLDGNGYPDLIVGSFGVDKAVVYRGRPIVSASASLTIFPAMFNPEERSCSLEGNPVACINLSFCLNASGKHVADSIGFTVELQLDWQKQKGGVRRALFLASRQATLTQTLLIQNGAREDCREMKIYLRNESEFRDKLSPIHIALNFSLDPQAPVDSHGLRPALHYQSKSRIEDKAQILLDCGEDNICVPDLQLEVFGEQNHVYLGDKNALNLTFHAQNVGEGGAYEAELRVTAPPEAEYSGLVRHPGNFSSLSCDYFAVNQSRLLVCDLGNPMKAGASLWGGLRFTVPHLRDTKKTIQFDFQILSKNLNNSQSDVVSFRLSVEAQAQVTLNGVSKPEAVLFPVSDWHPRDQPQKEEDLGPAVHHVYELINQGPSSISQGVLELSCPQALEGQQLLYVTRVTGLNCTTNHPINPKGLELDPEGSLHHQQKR
Fibronectin Receptor, sequence (P08648 895-1049 partner limits assumed): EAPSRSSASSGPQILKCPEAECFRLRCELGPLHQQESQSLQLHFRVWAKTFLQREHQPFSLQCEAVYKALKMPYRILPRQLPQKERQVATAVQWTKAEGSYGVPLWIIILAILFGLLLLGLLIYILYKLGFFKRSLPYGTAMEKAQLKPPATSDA
Fibronectin Receptor, sequence (P05556 21-798): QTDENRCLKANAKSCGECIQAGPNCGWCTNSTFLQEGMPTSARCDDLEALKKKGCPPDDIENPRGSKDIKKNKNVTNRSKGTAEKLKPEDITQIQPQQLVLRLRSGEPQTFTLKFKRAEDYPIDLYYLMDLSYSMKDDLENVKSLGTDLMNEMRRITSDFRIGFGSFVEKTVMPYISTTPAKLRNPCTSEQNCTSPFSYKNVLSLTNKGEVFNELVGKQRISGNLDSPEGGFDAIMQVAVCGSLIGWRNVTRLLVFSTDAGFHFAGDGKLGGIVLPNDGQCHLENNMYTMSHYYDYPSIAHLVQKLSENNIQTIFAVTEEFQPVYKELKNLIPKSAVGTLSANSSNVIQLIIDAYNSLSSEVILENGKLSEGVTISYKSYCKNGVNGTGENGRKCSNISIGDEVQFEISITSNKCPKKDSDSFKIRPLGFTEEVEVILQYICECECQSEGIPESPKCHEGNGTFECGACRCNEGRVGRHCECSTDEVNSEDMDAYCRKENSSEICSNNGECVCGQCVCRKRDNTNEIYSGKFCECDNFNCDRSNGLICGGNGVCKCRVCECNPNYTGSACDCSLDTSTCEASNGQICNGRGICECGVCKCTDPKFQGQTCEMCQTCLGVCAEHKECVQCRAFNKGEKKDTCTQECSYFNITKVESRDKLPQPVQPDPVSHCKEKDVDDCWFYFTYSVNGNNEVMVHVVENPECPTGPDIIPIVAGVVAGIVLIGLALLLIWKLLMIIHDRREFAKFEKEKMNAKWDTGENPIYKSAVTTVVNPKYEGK
Experimental: Fibronectin receptor is purified according to the procedures of Pytela et al., (Methods Enzymol. 144:475 […]). Briefly, fibronectin receptor is purified employing an Arg-Gly-Asp affinity chromatography from (100 mM) octylglucoside (OG) extracted human placenta. The OG extract is filtered over Sepharose 6B GRGDSPK column. The column is washed three times with three column volumes of Tris-buffered saline (TBS) TBS, 1 mM CaCl2, and 25 mM OG. The receptor is eluted with TBS, 20 mM EDTA, and 25 mM Octyl thioglucoside, and is stored in 1 mM CaCl2, 1 mM MgCl2, at -80° C.
Microtiter plates are coated with 110 μl human fibronectin (at 2 μg/ml) in TBS. Plates are washed three times with TBS containing 0.05% Tween 20. Test inhibitors are then added after washing in 10 microliter aliquots. The fibronectin receptor is added in 2-fold serial dilutions with TBS containing 20 mM octyl glucoside and 2 mM MnCl2. Plates are incubated three hours at room temperature, and washed with 200 μl TBS-Tween 20 buffer. 100 μl of affinity-purffied rabbit anti-human fibronectin receptor antibody is added to the wells and the plates are incubated two hours, washed twice with TBS-Tween and once with distilled water. Affinity-purified goat anti-rabbit IgG conjugated to horseradish peroxidase (100 μl) is added to each well followed by incubation for 60 minutes at room temperature. Plates are again washed twice with TBS-Tween and distilled water. 100 μl of substrate mixture (10 mg o-phenylenediamine in 25 ml 0.1M citrate-phosphate buffer, pH 5.0 6 μ30% H2 O2) is added to the plates and allowed to develop. The development process is stopped by adding 50 μl of 4N H2 SO4 to each well and read at […].

| SMILES | IC50 [1] | cutaneous bleeding time, result in words [2] | increase of cutaneous bleeding time compared to the undosed animal ([2]; rabbit, dose sufficient to achieve about 97% inhibition of platelet aggregation) | IC50 (Fibronectin Receptor) | increase in cutaneous bleeding time ([2]; dosed to 100% inhibition of platelet aggregation) | Rabbit BT Ratio ([2]; rabbit) |
| --- | --- | --- | --- | --- | --- | --- |
| N=C(N)NCCC[C@@H]1NC(=O)[C@@H](Cc2ccc(O)cc2)NC(=O)CSC[C@@H](C(=O)O)NC(=O)[C@H](CC(=O)O)NC(=O)CNC1=O [7/46, cyclo-S-acetyl-dTyr--Arg--Gly--Asp--Cys--OH] ({CH2CO}-[dY]RGDC-OH; thioether N-5) | 5 nM | prolongation of bleeding time in vivo in both the rabbit and dog model | 8.0 times | 3390 nM |  |  |
| N=C(N)NCCC[C@H](NC(=O)[C@@H]1CSCC(=O)N[C@H](Cc2ccc(O)cc2)C(=O)N[C@@H](CCCNC(=N)N)C(=O)NCC(=O)N[C@@H](CC(=O)O)C(=O)N1)C(N)=O [7/1, cyclo-S-acetyl-dTyr--Arg--Gly--Asp--Cys--Arg--NH2] ({CH2CO}-[dY]RGDCR-NH2; thioether N-5) | 49 nM |  |  | 57 nM | 1.17 times | 1.7 |
| N=C(N)NCCC[C@@H]1NC(=O)[C@@H](Cc2ccc(O)cc2)NC(=O)CSC[C@@H](C(=O)NCCN)NC(=O)[C@H](CC(=O)O)NC(=O)CNC1=O [8/23, cyclo-S-acetyl-dTyr--Arg--Gly--Asp--Cys--NH--X (X = ethyl amine)] ({CH2CO}-[dY]RGDC-Ethylenediamine; thioether N-5) | 35 nM |  |  | 61 nM |  | 0.81 |
| CC1(C)SCC(=O)N[C@H](Cc2ccc(O)cc2)C(=O)N[C@@H](CCCCN)C(=O)NCC(=O)N[C@@H](CC(=O)O)C(=O)N[C@@H]1C(=O)N[C@@H](CCCCN)C(N)=O [7/17, cyclo-S-acetyl-dTyr--Lys--Gly--Asp--Pen--Lys--NH2] ({CH2CO}-[dY]KGD[Pen]K-NH2; thioether N-5) | 100000 nM | without substantial increased cutaneous bleeding time |  | > 10000 nM |  | 1.13 and 1.0 |
| N=C(N)NCCC[C@H](NC(=O)[C@H](Cc1ccc(O)cc1)NC(=O)[C@@H]1CSCC(=O)N[C@H](Cc2ccc(O)cc2)C(=O)N[C@@H](CCCNC(=N)N)C(=O)NCC(=O)N[C@@H](CC(=O)O)C(=O)N1)C(N)=O [7/7, cyclo-S-acetyl-dTyr--Arg--Gly--Asp--Cys--Tyr--Arg--NH2] ({CH2CO}-[dY]RGDCYR-NH2; thioether N-5) | 51 nM |  |  | 27 nM |  | 4.10 |
